Measurements taken from patent US9334280B2, “Synthetic rigidin analogues as anticancer agents, salts, solvates and prodrugs thereof, and method of producing same” (New Mexico Technical Research Foundation, priority 2012, dated 2016).
Read-outs that look alike come from different tables or passages of the source.

Assays:
[1] = tested on: HeLa cervical adenocarcinoma cells; experiment: MTT antiproliferative assay, HeLa; assay type: cell-based; settings: Homo sapiens, MTT, ± SD, read-out: GI50 in vitro Values, HeLa
Experimental: (§1) Human T-cell leukemia cell line Jurkat (ATCC TIB-152, E6-1 clone) was cultured in RPMI-1640 (Invitrogen) supplemented with 10% FBS (Invitrogen), 100 mg/L penicillin G, 100 mg/L streptomycin, 1.0 mM sodium pyruvate, 1.5 g/L sodium bicarbonate, and 4.5 g/L glucose (all from Sigma). Human cervical cancer cell line HeLa (ATCC S3) was cultured in DMEM (Invitrogen) supplemented with 10% FBS, 100 mg/L penicillin G, and 100 mg/L streptomycin. MCF-7 (human mammary carcinoma) cells were cultured in DMEM supplemented with 1.0 mM sodium pyruvate, 1% GlutaMax™-1 (Invitrogen), 100 μg/mL penicillin, 100 μg/mL streptomycin, and 10% FBS. Human uterine sarcoma MES-SA and MES-SA/Dx5 cells were cultured in RPMI-1640 medium supplemented with 10% FBS, 100 mg/L penicillin G and 100 mg/L streptomycin. All cells were incubated at 37° C. in a humidified atmosphere with 5% CO2. The other cell lines were maintained in a similar fashion as previously described.
(§2) To evaluate antiproliferative properties of the compounds of Formula I, mitochondrial dehydrogenase activities were measured using the MTT assay. The cell lines were prepared by trypsinizing and seeding […] cells per well into microplates. All compounds were reconstituted in dimethyl sulfoxide (DMSO) at a concentration of either 100 mM or 25 mM prior to treatment. The cells were grown for 24 hrs before treatment at concentrations ranging from 0.004 to 100 microM and incubated for 48 hrs in 200 microL media. 20 microL of MTT reagent in serum free medium (5 mg/mL) was added to each well and incubated further for 2 hrs. Media was removed and the resulting formazan crystals were re-solubilized in 100 microL of DMSO and the optical density (OD) was measured using a Thermomax Molecular Device plate reader at a wavelength of 490 nm. The experiments were performed in quadruplicate and repeated at least twice for each compound per cell line. Cells treated with 0.1% DMSO were used as a negative control, while phenyl arsine oxide (PAO) was used as a positive killing control.
(§3) Human cancer cell lines were obtained from the American Type Culture Collection (ATCC, Manassas, Va., USA), the European Collection of Cell Culture (ECACC, Salisbury, UK) and the Deutsche Sammlung von Mikroorganismen and Zellkulturen (DSMZ, Braunschweig, Germany). Human cervical adenocarcinoma HeLa cells were cultured in DMEM supplemented with 10% fetal bovine serum (FBS). Human mammary carcinoma MCF-7 cells were cultured in RPMI supplemented with 10% FBS. The U87 and U373 cells were cultured in DMEM culture medium (Lonza code 12-136F, Vervier, Belgium), while the SKMEL-28 and A549 cells were cultured in RPMI culture medium (Lonza; code 12-115F) supplemented with 10% heat-inactivated FBS (Lonza, FBS South America code DE14-801F). […] All cell lines were cultured in T25 flasks, maintained and grown at 37° C., 95% humidity, 5% CO2.
(§4) To evaluate antiproliferative properties of the synthesized compounds, the MTT assay was used. The cell lines were assessed by trypsinizing each cell line and seeding 4×10^3 cells per well into 96-well plates. All compounds were dissolved in DMSO at a concentration of either 100 mM or 50 mM prior to cell treatment. The cells were grown for 24 h and then treated with compounds at concentrations ranging from 0.04 to 100 μM and incubated for 48 h in 200 μL media. 20 μL of MTT reagent in serum free medium (5 mg/mL) was added to each well and incubated further for 2 h. Media was removed, and the resulting formazan crystals were re-solubilized in 200 μL of DMSO. A490 was measured using a Thermomax Molecular Device plate reader. The experiments were performed in quadruplicate and repeated at least twice for each compound per cell line. Cells treated with 0.1% DMSO were used as a control, and 1 μM phenyl arsine oxide (PAO) was used as a positive killing control.

[2] = tested on: MCF-7 mammary gland adenocarcinoma cells; experiment: MTT antiproliferative assay, MCF-7; assay type: cell-based; settings: Homo sapiens, MCF7, MTT, ± SD, read-out: GI50 in vitro Values, MCF-7
Experimental: as §1, §2, §3, §4

[3] = tested on: A549 non-small-cell lung cancer cells; experiment: MTT antiproliferative assay, A549; assay type: cell-based; settings: Homo sapiens
Experimental: as §2, §3, §4

[4] = tested on: U-87 glioblastoma cells; experiment: MTT antiproliferative assay, U-87; assay type: cell-based; settings: Homo sapiens, Table 6, 48 h, ± SD, read-out: GI50 in vitro Values, U-87
Experimental: as §3, §4

[5] = tested on: HeLa, MCF-7, U-87 and A549 cells; experiment: MTT antiproliferative activity, statements for four-cell-line panel; assay type: cell-based, human; settings: MCF-7, U-87, A549, 48 h
Experimental: The antiproliferative effects of compounds 13 and 18-23 were studied in a more challenging cell line panel that, in addition to the previously utilized HeLa and MCF-7, contained in vitro models for cancers known to be associated with poor prognoses, such as the U-87 human glioblastoma and A549 human non-small-cell lung (NSCLC) carcinoma.
as §4

[6] = tested on: U373 glioblastoma cells; experiment: MTT antiproliferative assay, U373; assay type: cell-based, human; settings: U373 MG
Experimental: as §2, §3
as §4, with “Cells treated with 0.1% DMSO were used as a control, and 1 μM phenyl arsine oxide (PAO) was used as a positive killing control.” left out

[7] = tested on: SKMEL-28 melanoma cells; experiment: MTT antiproliferative assay, SKMEL-28; assay type: cell-based, human; settings: SK-MEL-28
Experimental: as §2, §3
as §4, with “Cells treated with 0.1% DMSO were used as a control, and 1 μM phenyl arsine oxide (PAO) was used as a positive killing control.” left out

[8] = tested on: U373 glioblastoma cells; experiment: Quantitative videomicroscopy, U373; assay type: cell-based, human; settings: U373, at MTT-based GI50 value
Description: (§5) Poor prognoses of glioblastoma, melanoma and NSCLC patients are generally attributed to the drug resistant nature of these malignanciesand therefore it was encouraging that 7-deazahypoxanthines 13 and 18-23 were active against the U87 human glioblastoma and A549 NSCLC carcinoma cell lines. Since tubulin-targeting agents are generally poorly effective against cancer cells resistant to the induction of apoptosis, compound 22 was further evaluated against U373 human glioblastoma and SKMEL human melanoma cells, reported to display apoptosis resistance. […] Computer-assisted phase-contrast microscopy (quantitative videomicroscopy) was utilized to confirm cell death as the principal mechanism of action associated with this compound's in vitro growth inhibitory effects in these cell lines.
(§6) The effects of 22 on the viability of human U373 glioblastoma and SKMEL melanoma cells were characterized in vitro using computer-assisted phase contrast video microscopy, as described elsewhere.

[9] = tested on: SKMEL melanoma cells; experiment: Quantitative videomicroscopy, SKMEL; assay type: cell-based, human; settings: at MTT-based GI50 value
Description: as §5, §6

[10] = tested on: UM-SCC10A head and neck cancer cells; experiment: MTT antiproliferative assay, UM-SCC10A; assay type: cell-based; settings: UMSCC-10A, Table 1A, 48 h, read-out: Concentration required to reduce the viability of cells by 50%, UM-SCC10A
Experimental: as §2

[11] = tested on: UM-SCC22A head and neck cancer cells; experiment: MTT antiproliferative assay, UM-SCC22A; assay type: cell-based; settings: Table 1A, 48 h, read-out: Concentration required to reduce the viability of cells by 50%, UM-SCC22A
Experimental: as §2

[12] = tested on: UM-SCC10B head and neck metastases cells; experiment: MTT antiproliferative assay, UM-SCC10B; assay type: cell-based; settings: Table 1A, 48 h, read-out: Concentration required to reduce the viability of cells by 50%, UM-SCC10B
Experimental: as §2

[13] = tested on: UM-SCC22B head and neck metastases cells; experiment: MTT antiproliferative assay, UM-SCC22B; assay type: cell-based; settings: Homo sapiens, UMSCC22B, Table 1A, 48 h, read-out: Concentration required to reduce the viability of cells by 50%, UM-SCC22B
Experimental: as §2

[14] = tested on: Hs683 anaplastic oligodendroglioma cells; experiment: MTT antiproliferative assay, Hs683; assay type: cell-based; settings: Homo sapiens, Hs 683, Table 2, 48 h, read-out: GI50 in vitro values, Hs683
Experimental: as §2

[15] = tested on: B16F10 melanoma cells; experiment: MTT antiproliferative assay, B16F10; assay type: cell-based; settings: Mus musculus, B16-F10, Table 2, 48 h, read-out: GI50 in vitro values, B16F10
Experimental: as §2

[16] = tested on: GEO colon cancer cells; experiment: MTT antiproliferative assay, GEO; assay type: cell-based; settings: Table 1A, 48 h, read-out: Concentration required to reduce the viability of cells by 50%, GEO
Experimental: as §2

[17] = tested on: HCT8 colon cancer cells; experiment: MTT antiproliferative assay, HCT8; assay type: cell-based; settings: Homo sapiens, HCT-8, Table 1A, 48 h, read-out: Concentration required to reduce the viability of cells by 50%, HCT8
Experimental: as §2

[18] = tested on: SW480 colon cancer cells; experiment: MTT antiproliferative assay, SW480; assay type: cell-based; settings: Homo sapiens, Table 1A, 48 h, read-out: Concentration required to reduce the viability of cells by 50%, SW480
Experimental: as §2

[19] = tested on: SW620 colon cancer cells; experiment: MTT antiproliferative assay, SW620; assay type: cell-based; settings: Homo sapiens, SW-620, Table 1A, 48 h, read-out: Concentration required to reduce the viability of cells by 50%, SW620
Experimental: as §2

[20] = tested on: MES-SA uterine sarcoma cells; experiment: MTT antiproliferative assay, MES-SA; assay type: cell-based; settings: Homo sapiens, Table 3, parental drug-responsive cell line, read-out: GI50 in vitro Values, MES-SA
Experimental: as §1, with “The other cell lines were maintained in a similar fashion as previously described.” left out
To evaluate antiproliferative properties of the compounds of Formula I, mitochondrial dehydrogenase activities were measured using the MTT assay. […] Media was removed and the resulting formazan crystals were re-solubilized in 100 microL of DMSO and the optical density (OD) was measured using a Thermomax Molecular Device plate reader at a wavelength of 490 nm. […]
The cells of such tumors are referred to as multidrug resistant (MDR). Thus, we assessed the compounds of Formula I for antiproliferative activity in an MDR cancer cell line. […]

[21] = tested on: MES-SA/Dx5 uterine sarcoma cells (overexpress p-gp); experiment: MTT antiproliferative assay, MDR MES-SA/Dx5; assay type: cell-based, human
Experimental: as §1, §2
The cells of such tumors are referred to as multidrug resistant (MDR). Thus, we assessed the compounds of Formula I for antiproliferative activity in an MDR cancer cell line. This was done using the uterine sarcoma cells, MES-SA/Dx5, which overexpress p-gp. The parental drug-responsive MES-SA cell line was used as control.

[22] = Table 6, 48 h, ± SD, read-out: GI50 in vitro Values, A549
[23] = Homo sapiens, Table 2, 48 h, MTT, read-out: GI50 in vitro values, U373
[24] = Table 2, 48 h, read-out: GI50 in vitro values, A549
[25] = Homo sapiens, Table 2, 48 h, MTT, read-out: GI50 in vitro values, SKMEL-28

Structure (SMILES)	GI50 ([1]; Table 6, 48 h) [nM]	GI50 ([2]; Table 6, 48 h) [nM]	GI50 [3, 22] [nM]	GI50 [4] [µM]	GI50 ([1]; Table 1, 48 h treatment) [nM]	GI50 ([2]; Table 1, 48 h treatment) [nM]	GI50 [6, 23] [nM]	GI50 [14] [nM]	GI50 [3, 24] [nM]	GI50 [7, 25] [nM]	GI50 [15] [nM]	further results
Cc1nc(=O)c2c(-c3cccnc3)c(C(=O)c3ccccc3)[nH]c2[nH]1 [Compound 21, 6-Benzoyl-2-methyl-5-(pyridin-3-yl)-1H-pyrrolo[2,3-d]pyrimidin-4(7H)-one]	3100 ± 100	4700 ± 800	12000 ± 1400	9.23 ± 2.13								antiproliferative potencies (in words) [5]: single-digit micromolar potencies
Cc1nc(=O)c2c(-c3cncc(Br)c3)c(C(=O)c3ccccc3)[nH]c2[nH]1 [Compound 22, 6-Benzoyl-5-(5-bromopyridin-3-yl)-2-methyl-1H-pyrrolo[2,3-d]pyrimidin-4(7H)-one]	490 ± 50	610 ± 10	1100 ± 400	2.4 ± 0.6								GI50 ([6]; apoptosis-resistant U373 human glioblastoma, read-out: MTT-based GI50 value, U373): 300 nM; GI50 ([7]; apoptosis-resistant SKMEL human melanoma, read-out: MTT-based GI50 value, SKMEL): 300 nM; mechanism of growth inhibition by videomicroscopy (in words) [8]: inhibited cancer cell proliferation by inducing cell death; mechanism of growth inhibition by videomicroscopy (in words) [9]: inhibited cancer cell proliferation by inducing cell death
O=C(c1ccccc1)c1[nH]c2[nH]cnc(=O)c2c1-c1cncc(Br)c1 [Rig9, 6-Benzoyl-5-(5-bromopyridin-3-yl)-1H-pyrrolo[2,3-d]pyrimidin-4(7H)-one]					80 ± 25	87 ± 20	30	20	20	20	40	IC50 [10]: 90 nM; IC50 [11]: 120 nM; IC50 [12]: 130 nM; IC50 [13]: 20 nM
O=C(c1ccccc1)c1[nH]c2[nH]cnc(=O)c2c1-c1ccccc1 [Rig35, 6-Benzoyl-5-phenyl-1H-pyrrolo[2,3-d]pyrimidin-4(7H)-one]					35 ± 7	40 ± 24	< 10	10	20	< 10	10	IC50 [16]: 8 nM; IC50 [17]: < 1 nM; IC50 [18]: < 1 nM; IC50 [19]: < 1 nM; GI50 [20]: 30 ± 4 nM; GI50 ([21]; Homo sapiens, MES-SA/Dx5, Table 3, MDR cell line, read-out: GI50 in vitro Values, MES-SA/Dx5): 70 ± 4 nM; variation in the sensitivities of the parental and MDR cell lines ([21]; MES-SA/Dx5 vs MES-SA, in words): only a small variation
